The values that follow are results of earlier work, collected in patent US20230113836A1, “NEW CONJUGATES OF PEPTIDES AND POLYSACCHARIDE” (ENLITISA (SHANGHAI) PHARMACEUTICAL CO., LTD., priority 2019, published 2023).

The series relates to Drosophila model organism. As to conditions: Foureman et al., 1994.

Regarding `C(CCOCC1CO1)COCC1CO1` (stereo not shown) [BDDE, 1,4-butanediol diglycidyl ether], the Mutagenicity entry is on record as “mutagenic”.
